# Test results reported in US12115176B2, “Methods and compositions relating to ClbP inhibition” (PRESIDENT AND FELLOWS OF HARVARD COLLEGE, priority 2021, dated 2024).
# Entries after “also recorded” stand apart in the source; their conditions may differ.
# Key:
# Bifidobacterium longum = experiment: Bacterial MIC assay (broth dilution); assay type: cell-based; conditions: 15 h, read-out: MICs by compound
# [1] = tested on: HeLa cells infected with NC101; experiment: HeLa infection assay with pks+ E. coli, cell cycle analysis by flow cytometry; assay type: cell-based, human
# Procedure: Infection with pks^+ E. coli. Assays for cell-cycle arrest and FANCD2 ubiquitination were performed by seeding 24-well plates with 125,000 HeLa cells per well and incubating those plates under standard conditions for 24 hours. At the same time, cultures of NC101 and NC101ΔclbP were started from frozen stocks in LB broth and grown at 37° C. with shaking overnight. […] Cultures were monitored until an OD600 of 0.3-0.5 was reached. At that point, samples of the cultures were removed and DMSO stock solutions of the inhibitor of interest were added to each sample to a final concentration of 1% DMSO and the concentration of inhibitor indicated.
# Media in the 24-well plate was aspirated, HeLa cells were washed with sterile DPBS (Thermo Fisher Scientific), and fresh DMEM+FBS+1% DMSO with the indicated concentration of inhibitor was added. A volume of E. coli equivalent to 2.5×10^7 bacteria based on OD in DMEM+FBS+1% DMSO with the indicated concentration of inhibitor was then added directly to wells (Multiplicity of Infection, MOI 1:100). Infections were carried out for 4 hours at 37° C. in a humidified 5% CO2 incubator. Media was then aspirated and cells were washed with DPBS twice to remove bacteria, and fresh DMEM+FBS+PSF supplemented with 50 μg/mL gentamicin was added.
# Cell Cycle Analysis. Between 20 and 24 hours after infection, HeLa cells were trypsinized (0.25% Trypsin-EDTA, Gibco), washed with DPBS, and fixed in cold 70% ethanol and stored at 4° C. until flow cytometry analysis (24-48 hours). Cells were centrifuged at 800×g for 10 minutes and 70% ethanol was aspirated. Cells were resuspended in DPBS for 15 minutes, then centrifuged and supernatant aspirated again. Cells were then resuspended in DPBS with 0.2 mg/mL RNAse A (Invitrogen) and 0.02 mg/mL propidium iodide (Millipore Sigma). After 30 minutes, cells were analyzed on a BD LSR II Analyzer at the Harvard University Bauer Core Flow Cytometry Facility. For each replicate, 10,000 events were collected and results were gated for single cells and plotted using the FloJo™ software package.
# Klebsiella oxytoca = experiment: Bacterial MIC assay (broth dilution); assay type: cell-based; conditions: 15 h, read-out: MICs by compound
# E. coli BW25113 BACpks = experiment: Metabolomics (LC-MS, XCMS); assay type: cell-based; conditions: BW pks (and NC101), 1 μM 3 versus DMSO
# Procedure: Metabolomics. One 5 mL starter culture each of E. coli BW25113 BACpks and E. coli BW25113 BACpksΔclbP was inoculated from frozen stocks and grown overnight at 37° C. in LB medium supplemented with 35 μg/ml chloramphenicol (LB+cam). Overnights were diluted 1:1000 in fresh LB+cam+1% DMSO with or without 1 μM inhibitor 3 in 5 replicates for each condition and grown for 20 hours at 37° C. A 500 μL aliquot was taken from each replicate, flash frozen in liquid nitrogen and lyophilized to dryness. Lyophilized pellets were extracted with 500 μL LC-MS grade methanol and prepared in the same manner as described above for metabolomics. Samples were analyzed by LC-MS on an Agilent Technologies 1200 series LC with a Phenomenex Luna C18 column (5 μm, 100 Å, 250×4.6 mm) coupled to an Agilent 6530 Quadrupole-Time of Flight mass spectrometer. The following chromatography conditions were used: 99% Solvent A in Solvent B for 1.5 minutes, linear gradient to 0% Solvent A in Solvent B over 43.5 minutes, 0% Solvent A for 8 minutes, linear gradient back to 99% Solvent A over 1 minute, equilibration in 99% solvent A for 9 minutes at flow rate of 0.4 mL/min and a 10 uL injection volume. Solvent A is water with 0.1% formic acid, solvent B is acetonitrile with 0.1% formic acid. […]
# [2] = target: E. coli BL21 overexpressing ClbP (Escherichia coli, UniProt Q0P7K6); experiment: ClbP fluorescence activity assay (live cells); assay type: cell-based
# Procedure: ClbP fluorescence activity assay (live cells). One 5 mL starter culture each E. coli BL21 pET-29b-ClbP and pET-29b-ClbP-S95A were inoculated from frozen stocks and grown overnight at 37° C. in LB medium supplemented with 50 μg/ml kanamycin (LB+kan). Overnight cultures were diluted 1:100 in fresh LB+kan and incubated at 37° C. to an OD600 of 0.3, at which point protein expression was induced by the addition of 500 μM isopropyl β-D-1-thiogalactopyranoside (IPTG) and cultures were moved to 15° C. for 4 hours. Cultures were then aliquoted in a black 384-well plate and the appropriate concentration of inhibitor was added as a DMSO stocks to a final concentration of 1% DMSO in a volume of 30 μL. Reactions were initiated by the addition of 10 μL of LB+kan+IPTG containing the fluorogenic substrate (final concentration=100 μM). Plastes were incubated at 25° C. with intermittent shaking while taking regular fluorescence measurements in a Bio-Tek Synergy HTX multimode plate reader with an excitation filter of 360/40 nm and an emission filter of 440/20 nm. “% activity” was determined based on the formula above using RFU measurements after 7 hours.
# Lactobacillus rhamnosus = experiment: Bacterial MIC assay (broth dilution); assay type: cell-based; conditions: Lacticaseibacillus rhamnosus, 15 h, read-out: MICs by compound
structure (smiles),measurement,setting,value
CC1(C)OB([C@@H](CC(N)=O)NC(=O)CCCc2ccccc2)OC1(C)C [Compound 3],MIC,Bifidobacterium longum,> 200 µM
same,concentration that completely blocks G2/M phase cell cycle arrest,"[1]; HeLa and NC101, inhibitor in the infection medium, FIG. 12A",≤ 100 nM
same,concentration that completely blocks G2/M phase cell cycle arrest,"[1]; HeLa and pks+ E. coli, 1-hour preincubation of inhibitor with E. coli, FIG. 4",≤ 5 nM
same,cell cycle arrest phenotype of colibactin genotoxicity,"[1]; HeLa cells infected with NC101, propidium iodide flow cytometry",can block the cell cycle arrest phenotype; also recorded: prevents cell cycle arrest
same,IC50,"[1]; Homo sapiens, HeLa cells infected with pks+ E. coli, FIG. 4, read-out: apparent IC50 for inhibition of G2/M-phase arrest",~10 nM
same,MIC,Klebsiella oxytoca,> 200 µM
same,changes in metabolites versus clbP deletion,E. coli BW25113 BACpks,resulted in the same changes in metabolites as genetic deletion of clbP
same,IC50,[2],18.3 nM
same,MIC,Lactobacillus rhamnosus,> 200 µM
